Test [1] concerns Fra-1 mRNA in H1299 cells. Kind of test: Fra-1 mRNA levels by Q-PCR in H1299 cells after HDAC inhibitor treatment. The test is classed as cell-based, Human. The conditions noted are these: for mrna remaining at 0.1 µM: Homo sapiens, NCI-H1299, read-out: % Fra1 mRNA remaining; for mrna remaining at 0.1 µM / % Fra1 mRNA remaining: H1299 cells. The method, then:
Human H1299 non-small cell lung carcinoma cells (ATCC, Manassas, Va.) (ATCC #CRL-5803) are cultured in RPMI 1640 medium (Life Technologies, Gaithersburg, Md.) containing 10% fetal bovine serum (FBS, Life Technologies) plus 50 μg/ml Gentamycin (Life Technologies) in a humidified incubator with a 5% CO2 atmosphere at 37° C. Prior to Tpx A treatment, H1299 cells are plated at a density of 2×10^5 cells/well in 6 well plates (Costar, Corning, N.Y.) and grown up for 24 h. Tpx A (1 mM stock solution in DMSO) is added to the cells at concentrations from 1 to 1000 nM and cells are incubated for either 24 or 48 hours at 37° C.
(§1) Total RNA from Tpx A treated as well as untreated H1299 and A549 cells is prepared using the RNeasy Mini kit (Qiagen, Hilden, Germany) according to the manufacturers instructions. The RNA is recovered in 50 μl DEPC-treated H2O (RNase free) and the RNA concentration is determined by measuring the OD260 in a SpectraMax photometer (Molecular Devices, Sunnyvale, Calif.).
(§2) Sequences for primers (BIG, Freiburg, Germany) and TaqMan probes for Q-PCR containing 5′ FAM fluorescent reporter and 3′ TAMRA quencher dyes (Eurogentec, Seraing, Belgium) are selected using the Primer Express Software (Applied Biosystems, Foster City, Calif.) at default settings; Primer TM Requirements: Min Tm: 58° C., Max Tm:60° C., Optimal Tm: 59° C., Maximal Tm difference: 2° C. Primer GC Content Requirements: Min %GC 30, Max %GC 80, 3′ clamp of 0 residues. Primer Length Requirements: Min length: 9, Max length: 40, optimal length: 20. Amplicon Requirements: Min Tm: 0° C., Max Tm: 85° C., Min length: 50, Max length: 150. TaqMan Probe Criteria: TaqMan probe Tm must be 10° C. greater than PCR primer Tm.
(§3) Q-PCR is performed using the TaqMan PCR Core reagent kit (Applied Biosystems Foster City, Calif.) in a ABI Prism 7700 sequence detector (Applied Biosystems) according to the manufacturers instructions. 50 ng total RNA in 12 μl DEPC-H2O are prepared in MicroAmp optical 96 well reaction plates (Applied Biosystems) together with 13 μl TaqMan PCR reagent mix as provided in Table 1.
(§4) Settings for reverse transcription of the target RNA and detection by Q-PCR are 50° C. for 2 min., 95° C. for 10 min. followed by 50 cycles of 95° C. for 15 sec and 60° C. for 1 min. Relative measurement of the amplified product is performed using the comparative CT method as described in the manufacturer's manual (Applied Biosystems, ABI Prism 7700 sequence detection system, User Bulletin #2).
(§5) H1299 cells and HCT116 cells (ATCC, Manassas, Va.) are cultured and exposed to Tpx A or Compound A and levels of Fra-1 message assayed. In these experiments, H1299 cells are cultured as described in Example 1. HCT116 cells are cultured in RPMI 1640 medium containing 10% fetal calf serum at 37° C. and 5% CO2. 100 nM trapoxin, 100 nM Compound A or 100 nM DMSO are added to the cells at 60% confluence and grown up for either 6 or 24 hours. Using methodologies as described in Example 1 above, the RNA from cultures treated with Tpx A, Compound A or DMSO as a control is obtained and analysed by Q-PCR for Fra-1 levels; in this case, 8.7 ng total RNA in 12 μl DEPC-H2O are prepared in MicroAmp optical 96 well reaction plates (Applied Biosystems) together with 13 μl TaqMan PCR reagent mix as provided in Table 1.

The subject of test [2] is Fra-1 mRNA in HCT116 cells. The test can be described thus: Fra-1 mRNA levels by Q-PCR in HCT116 cells after HDAC inhibitor treatment. Format: cell-based. As to conditions: for mrna remaining at 0.1 µM: Homo sapiens, HCT-116, 100 nM drug, read-out: % Fra1 mRNA remaining; for % Fra1 mRNA remaining: 100 nM drug. The method, then:
as §5

Test [3] has as its system histone deacetylase activity purified from H1299 cells. The test can be described thus: Histone deacetylase activity, release of tritium labeled acetyl groups from acetylated Histone H4 peptide. The test is classed as biochemical, Human. The conditions noted are these: HDAC activity purified from H1299 cells, 2 hours at 37° C. The method, then: Using conventional methodologies, the actual enzyme activity of […] was examined in the presence of Trapoxin A, Compound A or Compound B. Briefly, 30,000 cpms of a tritium labeled acetylated Histone H4 peptide is incubated with histone deacetylase activity purified from H1299 cells by ion exchange chromatography in HDAC assay buffer (10 mM Tris-Cl, pH 8.0, 10 mM NaCl, 10% glycerol) in the presence or absence of drug. The mixture is allowed to sit for 2 hours at 37° C. and radio-labeled acetyl groups released by histone deacetylase activity extracted into ethyl acetate and counted on a scintillation counter. The IC50 represents the concentration of drug that inhibits 50% of the histone deacetylase activity obtained in the absence of drug.

The test system of test [4] is Fra-1 mRNA in A549 cells. The test can be described thus: Fra-1 mRNA levels by Q-PCR in A549 cells after HDAC inhibitor treatment. The test is classed as cell-based, Human. As to conditions: for mrna remaining at 0.1 µM: Homo sapiens, 100 nM, n = 4 (Example 3), read-out: % Fra1 mRNA remaining; for mrna remaining at 0.1 µM / % Fra1 mRNA remaining: A549 cells. The method, then:
Human A549 non-small lung carcinoma cells (ATCC CCL-185, Manassas, Va.) are cultured in DMEM medium (Life Technologies, Gaithersburg, Md.) containing 4500 mg/l glucose, 10% fetal bovine serum (FBS, Life Technologies) plus 50 μg/ml Gentamycin (Life Technologies) in a humidified incubator with a 5% CO2 atmosphere at 37° C. Prior to Tpx A treatment, A549 cells are plated at a density of 2×10^5 cells/well in 6 well plates (Costar, Corning, N.Y.) and grown up for 24 h. Tpx A (1 mM stock solution in DMSO) is added to the cells at concentrations from 1 to 1000 nM and cells are incubated for either 24 or 48 hours h at 37° C.
as §1, §2, §3, §4
Human A549 non-small cell lung carcinoma cells (ATCC, Manassas, Va.) (ATCC #CCL-185) are cultured in DMEM medium (Life Technologies, Gaithersburg, Md.) containing 10% fetal bovine serum (FBS, Life Technologies) plus 50 μg/ml Gentamycin (Life Technologies) in a humidified incubator with a 5% CO2 atmosphere at 37° C. Prior to Compound B treatment, A549 cells are plated at a density of 5×10^4 cells/well in 24 well plates (Costar, Corning, N.Y.) and grown up for 24 h. Compound B (10 mM stock solution in DMSO) is diluted to a final concentration of 100 nM in tissue culture medium and added to the cells. As control an equivalent amount of DMSO is added to control cultures without Compound B. The cells are incubated at 37° C. for either 16, 24 or 48 hrs. All cell cultures are set up in duplicate. Total RNA from the compound—treated as well as untreated A549 cells is prepared using the RNeasy Mini kit (Qiagen, Hilden, Germany) according to the manufacturer's instructions. The RNA is recovered in 50 μl DEPC-treated H2O (RNase free) and the RNA concentration is determined by measuring the OD260 in a SpectraMax photometer (Molecular Devices, Sunnyvale, Calif.). The amount of RNA is adjusted to 5 ng/microliter.
DNA sequence of the Fra-1 primers and probes are as described above. Settings for reverse transcription of the target RNA and detection by Q-PCR are 50° C. for 2 min., 95° C. for 10 min. followed by 50 cycles of 95° C. for 15 sec and 60° C. for 1 min. […]

Test [5] deals with Fra-1 mRNA in H1299 cells. The test can be described thus: Fra-1 mRNA expression by conventional microarray technology in H1299 cells. As to conditions: in the presence of TPX A, data not shown. Format: cell-based, Human.
Test [6] concerns Fra-1 mRNA in A549 cells. Kind of test: Fra-1 mRNA expression by conventional microarray technology in A549 cells. The test is classed as cell-based, Human. As to conditions: in the presence of TPX A, data not shown.
Test [7] addresses histone deacetylase activity purified from H1299 cells by ion exchange chromatography (human). The test can be described thus: cell-based or functional assay.

The record followed here is US20050118596A1, “Method for screening for compounds having hdac inhibitory activity” (priority 2002, published 2005).

Read-outs that look alike come from different tables or passages of the source. Where a SMILES comes first, the peptide text is derived from it. [ ]: non-standard residue; d: D form. ξ: configuration not given here. Aoe(9ξ) = N[C@@H](CCCCCC(=O)C1CO1)C(=O)O; dPip = O=C(O)[C@H]1CCCCN1

As to `O=C(/C=C/c1ccc(CNCCc2c[nH]c3ccccc23)cc1)NO` [Compound A, N-Hydroxy-3-[4-[[[2-(1H-indol-3-yl)-ethyl]-amino]methyl]phenyl]-2E-2-propenamide], the mrna remaining at 0.1 µM came to 7.14% in test [1] (100 nM drug, 6 hr (Example 2)); 2.07% in test [1] (100 nM drug, 24 hr (Example 2)); 32.6% in test [2] (6 hr); 15.9% in test [2] (24 hr). Moreover, it took 0.063 ± 0.01 µM to reach half-maximal inhibition in test [3] (IC50).

Take `O=C(/C=C/c1ccc(CN(CCO)CCc2c[nH]c3ccccc23)cc1)NO` [Compound B, N-Hydroxy-3-[4-[[(2-hydroxyethyl)[2-(1H-indol-3-yl)-ethyl]-amino]methyl]phenyl]-2E-2-propenamide]: in test [3], the IC50 (as a rule, the midpoint of a concentration-inhibition curve) was 0.032 ± 0.017 µM. The mrna remaining at 0.1 µM in the test with Fra-1 mRNA in A549 cells [4] (16 hr) was determined as 15%; with Fra-1 mRNA in A549 cells [4] (24 hr) it was 14.1%; with Fra-1 mRNA in A549 cells [4] (48 hr), 52.8%.

Consider `O=C(CCCCC[C@@H]1NC(=O)[C@H]2CCCCN2C(=O)[C@H](Cc2ccccc2)NC(=O)[C@H](Cc2ccccc2)NC1=O)C1CO1` (some centres unmarked) [TPX A, trapoxin A] (cyclo(FF[dPip][Aoe(9ξ)])), for which the “repression of Fra-1 mRNA expression (microarray)” value (in test [5]; in the test with Fra-1 mRNA in A549 cells [6]) was over 200 fold each time. The IC50 in test [1] (H1299 cell line, Tpx A treatment, Q-PCR, read-out: IC50 for Fra-1 mRNA down regulation) was 1 to 10 nM; in test [3] it was 2.2 ± 0.96 µM; in the test on Fra-1 mRNA in A549 cells [4] (A549 cell line, Tpx A treatment, Q-PCR, read-out: IC50 for Fra-1 mRNA down regulation) it was 10 to 50 nM. For the same compound, the “% Fra1 mRNA remaining” value is recorded as 5.81% in test [1] (100 nM drug, 6 hr (Example 2)); 3.11% in test [1] (100 nM drug, 24 hr (Example 2)); 98% in test [1] (24 hours, 1 nM TPX A); 2% in test [1] (24 hours, 10 nM TPX A); 1% in test [1] (24 hours, 50 nM TPX A); 1% in test [1] (24 hours, 100 nM TPX A). Besides, the “% Fra1 mRNA remaining” value in test [1] (24 hours, 250 nM TPX A) worked out at 1%; in test [1] (24 hours, 500 nM TPX A) it was 1%; in test [1] (24 hours, 1000 nM TPX A) it was 1%; in test [1] (48 hours, 1 nM TPX A), 94%; in test [1] (48 hours, 10 nM TPX A), 7%; in test [1] (48 hours, 50 nM TPX A), 1%. For the same compound, the “% Fra1 mRNA remaining” value turned out to be 1% in test [1] (48 hours, 100 nM TPX A); 1% in test [1] (48 hours, 250 nM TPX A); 1% in test [1] (48 hours, 500 nM TPX A); 1% in test [1] (48 hours, 1000 nM TPX A); 14.25% in test [2] (6 hr); 13.68% in test [2] (24 hr). Besides, the “% Fra1 mRNA remaining” value in the test with Fra-1 mRNA in A549 cells [4] (24 hours, 1 nM TPX A) was found to be 95%; in the test on Fra-1 mRNA in A549 cells [4] (24 hours, 10 nM TPX A), 64%; in the test with Fra-1 mRNA in A549 cells [4] (24 hours, 50 nM TPX A), 26%; with Fra-1 mRNA in A549 cells [4] (24 hours, 100 nM TPX A), 16%; with Fra-1 mRNA in A549 cells [4] (24 hours, 250 nM TPX A), 6%; in the test with Fra-1 mRNA in A549 cells [4] (24 hours, 500 nM TPX A) it was 4%. In addition, the “% Fra1 mRNA remaining” value was 3% in the test on Fra-1 mRNA in A549 cells [4] (24 hours, 1000 nM TPX A); 93% in the test on Fra-1 mRNA in A549 cells [4] (48 hours, 1 nM TPX A); 84% with Fra-1 mRNA in A549 cells [4] (48 hours, 10 nM TPX A); 38% in the test with Fra-1 mRNA in A549 cells [4] (48 hours, 50 nM TPX A); 32% in the test with Fra-1 mRNA in A549 cells [4] (48 hours, 100 nM TPX A); 14% in the test with Fra-1 mRNA in A549 cells [4] (48 hours, 250 nM TPX A). Further, the “% Fra1 mRNA remaining” value in the test on Fra-1 mRNA in A549 cells [4] (48 hours, 500 nM TPX A) worked out at 7%; in the test on Fra-1 mRNA in A549 cells [4] (48 hours, 1000 nM TPX A), 6%.

The compound trapoxin A (peptide) yielded an IC50/µM on histone deacetylase (release of tritium-labelled acetyl groups from an acetylated Histone H4 peptide) in test [7] of 2.2 µM.
